Where “and” joins values, the source holds several entries; their conditions need not be identical. Equal values may be shown once. Read-outs that look alike come from different tables or passages of the source.
Tests used:
H1650 = assay: Non Small Cell Lung Cancer proliferation assay (Alamar Blue reduction), H1650; assay type: cell-based, human; conditions: for inhibition at 10 µM: NCI-H1650, primary screening; for inhibition at 10 µM / CONFIRMATION [%] 1650: 10 μM compound in 1% DMSO (v/v); for CONFIRMATION [%] 1650: percentage inhibition
Outline: (§1)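 Human NSCLC cells were seeded at 250 cells/well with compound at a final 1% DMSO and treated for 48 hours at 37° C. 1% DMSO served as the high control.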

H1975 = assay: Non Small Cell Lung Cancer proliferation assay (Alamar Blue reduction), H1975; assay type: cell-based, human; conditions: for inhibition at 10 µM: NCI-H1975, primary screening; for inhibition at 10 µM / CONFIRMATION [%] 1975: 10 μM compound in 1% DMSO (v/v); for CONFIRMATION [%] 1975: percentage inhibition
Outline: as §1

H2030 = assay: Non Small Cell Lung Cancer proliferation assay (Alamar Blue reduction), H2030; assay type: cell-based, human; conditions: for inhibition at 10 µM: NCI-H2030, primary screening; for inhibition at 10 µM / CONFIRMATION [%] 2030: 10 μM compound in 1% DMSO (v/v); for CONFIRMATION [%] 2030: percentage inhibition
Outline: as §1

H358 = assay: Non Small Cell Lung Cancer proliferation assay (Alamar Blue reduction), H358; assay type: cell-based; conditions: Homo sapiens, H358, 12 point doubling dilution 10 uM to 5 nM, 48 h treatment, alamar blue additional 48 h, read-out: IC50 H358
Method: These cells have a doubling time of 1-2 days. All cell types are adherent and grow in colonies. The cells should be kept at a density between 50,000 cells/mL -500,000 cells/mL to provide for optimum growth and adequate nutrition. The cell line should be maintained at 37° C. in a humidified atmosphere with 5% CO2 in a sterile cell culture incubator.
Non Small Cell Lung Cancer Proliferation Assay.
High Controls for this assay are made by treating Non Small Cell Lung Cancer cells with 5 ul of 10% DMSO. [Final concentration in this assay is 1% DMSO].
Important Note: All compounds for testing in this assay should be done at the final concentration of 1% DMSO.
After addition, the cells are placed in cell culture incubator at 37° C. for 48 hours for complete treatment.
After drug treatment, cytotoxicity is measured by Alamar Blue reduction.
The cells are incubated for 48 hours at 37° C. to complete the Alamar Blue reduction.
The final step in the assay is to measure the amount of Alamar Blue reduction. […] The Alamar Blue fluorescence is measured at an excitation of 530 nm and emission of 590 nm.
For the NSCLC project, the cell based assay was screened against a small molecule library of approximately 200,000 compounds. The compound library is stored in our automated robotic freezer (Biophile) at −20° C. in 100% DMSO. Compound freeze and thaw cycles are kept to a minimum. […] This assay was performed on a fully automated linear track robotic platform (CRS F3 Robot System, Thermo Electron Corp., Ontario, Canada) utilizing several integrated peripherals for plate handling, liquid dispensing, and readout detection. […] The microplates are then placed at 37° C. for 48 hours to complete treatment of cells with compounds. Next, 5 ul of alamar blue was added using a liquid dispenser (Flexprop Precision Dispenser, Perkin Elmer, Mass., USA) and incubated for 48 hours at 37° C. The alamar blue prompt fluorescence was measured on Victor V (Victor^3 V, Perkin Elmer, Mass., USA) and output data files were loaded into ORIS (Oncology Research Informatics System, MSKCC, NY, USA), a screening data acquisition and analysis platform.
(§2) The dose response studies were done with the following standard procedure. First, the cells were counted and dispensed at 250 cells/well into 384-well microplates with compound. The cells were incubated for 48 hours at 37 C to complete treatment, and then alamar blue was added for an additional 48 hours. Finally, alamar blue reduction was measured and the data was loaded into ORIS, our data screening acquisition platform.

H820 = assay: Dose response study (Alamar Blue), H820; assay type: cell-based; conditions: Homo sapiens, read-out: IC50 H820
Method: (§3) Dose response studies against 34 compounds from the pyridazinone and phenylfuran-carboxamide class were conducted. […] In addition, Tarceva was included in these dose response studies.
as §2

A549 = assay: Dose response study (Alamar Blue), A549; assay type: cell-based; conditions: Homo sapiens, read-out: IC50 A549
Method: as §3, §2

H23 = assay: Dose response study (Alamar Blue), H23; assay type: cell-based; conditions: Homo sapiens, read-out: IC50 H23
Method: as §3, §2

H2122 = assay: Dose response study (Alamar Blue), H2122; assay type: cell-based; conditions: Homo sapiens, read-out: IC50 H2122
Method: as §3, §2

H2444 = assay: Dose response study (Alamar Blue), H2444; assay type: cell-based; conditions: Homo sapiens, read-out: IC50 H2444
Method: as §3, §2

[1] = Homo sapiens, NCI-H1650, 48 h, H1650, 12 point doubling dilution 10 uM to 5 nM, 48 h treatment, alamar blue additional 48 h, read-out: IC50 H1650
[2] = Homo sapiens, NCI-H1650, phenylfuran-2-carboxamide SAR summary, read-out: IC50(uM) 1650
[3] = Homo sapiens, H1650, read-out: PRIMARY HTS [%] H1650 (percentage inhibition)
[4] = Homo sapiens, NCI-H1975, 48 h, H1975, 12 point doubling dilution 10 uM to 5 nM, 48 h treatment, alamar blue additional 48 h, read-out: IC50 H1975
[5] = Homo sapiens, NCI-H1975, phenylfuran-2-carboxamide SAR summary, read-out: IC50(uM) 1975
[6] = Homo sapiens, H1975, read-out: PRIMARY HTS [%] H1975 (percentage inhibition)
[7] = Homo sapiens, NCI-H2030, 48 h, H2030, 12 point doubling dilution 10 uM to 5 nM, 48 h treatment, alamar blue additional 48 h, read-out: IC50 H2030
[8] = Homo sapiens, NCI-H2030, phenylfuran-2-carboxamide SAR summary, read-out: IC50(uM) 2030
[9] = Homo sapiens, H2030, read-out: PRIMARY HTS [%] H2030 (percentage inhibition)

Row | Compound | IC50 (H1650; [1]) [µM] | IC50 (H1650; [2]) [µM] | inhibition at 10 µM (H1650; [3]) [%] | CONFIRMATION [%] 1650 (H1650) | IC50 (H1975; [4]) [µM] | IC50 (H1975; [5]) [µM] | inhibition at 10 µM (H1975; [6]) [%] | CONFIRMATION [%] 1975 (H1975) | IC50 (H2030; [7]) [µM] | IC50 (H2030; [8]) [µM] | inhibition at 10 µM (H2030; [9]) [%] | CONFIRMATION [%] 2030 (H2030) [%] | IC50 (H358; NCI-H358, 48 h) [nM] | IC50 (H820; NCI-H820, 48 h) [nM] | IC50 (A549; A549, 48 h) [nM] | IC50 (H23; NCI-H23, 48 h) [nM] | IC50 (H2122; NCI-H2122, 48 h) [nM] | IC50 (H2444; NCI-H2444, 48 h) [nM] | further results
1 | Cc1cccc(NC(=O)c2ccc([N+](=O)[O-])o2)c1 [compound 71762] | 0.63 | 0.43 | 104 | 135% and 106% | 4.23 | 1.24 | 74 | 59% and 76% | 0.99 | 1.43 | 101 | 103 | – | – | – | – | – | – | IC50 (H1650; phenylfuran-2-carboxamide SAR summary, read-out: IC50(uM) 1650): 0.41 µM; IC50 (H1975; phenylfuran-2-carboxamide SAR summary, read-out: IC50(uM) 1975): 1.23 µM; IC50 (H2030; phenylfuran-2-carboxamide SAR summary, read-out: IC50(uM) 2030): 1.46 µM; IC50 (H358; NCI-H358): 1270 nM; IC50 (H820; NCI-H820, H820, 12 point doubling dilution 10 uM to 5 nM, 48 h treatment, alamar blue additional 48 h): 3610 nM; IC50 (A549; A549, 12 point doubling dilution 10 uM to 5 nM, 48 h treatment, alamar blue additional 48 h): 1460 nM; IC50 (H23; NCI-H23, H23, 12 point doubling dilution 10 uM to 5 nM, 48 h treatment, alamar blue additional 48 h): 830 nM; IC50 (H2122; NCI-H2122, H2122, 12 point doubling dilution 10 uM to 5 nM, 48 h treatment, alamar blue additional 48 h): 4830 nM; IC50 (H2444; NCI-H2444, H2444, 12 point doubling dilution 10 uM to 5 nM, 48 h treatment, alamar blue additional 48 h): 3800 nM
2 | Cc1ccc(NC(=O)c2ccc([N+](=O)[O-])o2)cc1 [compound 98697] | 0.6 | 0.44 | 103 | 136% | 4.57 | 1.09 | 70 | 70% | 1.18 | 1.06 | 62 | 101 | 1200 | 3530 | 1810 | 910 | 5200 | 4790 | –
3 | O=C(Nc1ccc(Cl)cc1)c1ccc([N+](=O)[O-])o1 [compound 98698, 5-nitro-furan-2-carboxylic acid (4-chloro-phenyl)-amide] | 0.47 | 0.38 | 101 | 133% | 2.63 | 0.63 | 74 | 57% | 0.91 | 1.12 | 17 | 98 | 810 | 1830 | 1330 | 600 | 3090 | 2430 | –
4 | Cc1cccc(-n2ncc(Cl)c(Cl)c2=O)c1 [compound 104122, 4,5-dichloro-2-m-tolyl-2H-pyridazin-3-one] | 1.41 | – | – | – | 0.29 | – | – | – | 0.29 | – | – | – | 410 | 180 | 1450 | 210 | 1150 | 240 | inhibition at 10 µM (H1650; Homo sapiens, read-out: percentage inhibition H1650): 48%; inhibition at 10 µM (H1975; Homo sapiens, read-out: percentage inhibition H1975): 104%; IC50 (H1975; dose response 10 M to 5 nM, IC50, read-out: Dose Response (uM) H1975): 0.14 µM; inhibition at 10 µM (H2030; Homo sapiens, read-out: percentage inhibition H2030): 101%
